Measured values taken from ChEMBL document CHEMBL3045068, “Effect of methomyl and oxamyl soil applications on early control of nematodes and insects” (Pest Manag Sci, 2011).
Values after ≈ are worked out from the molar mass of the structure shown.

Tests used:
Meloidogyne incognita [1] = assay: Nematicidal activity against second juvenile stage of Meloidogyne incognita (root-knot nematode) infected lima bean plant assessed as emergence at 3 kg ai/ha applied to soil measured up to 14 days post planting under green house conditions (reference value: 83 +/- 5%); assay type: functional
[2] = system: Frankliniella occidentalis; assay: Insecticidal activity against Frankliniella occidentalis (western flower thrips) infested beans assessed as mortality applied to soil after 7 days; assay type: functional
Meloidogyne incognita [3] = assay: Nematicidal activity against second juvenile stage of Meloidogyne incognita (root-knot nematode) infected lima bean plant assessed as root dry weight at 3 kg ai/ha applied to soil measured up to 14 days post planting under green house conditions (reference value: 0.5 +/- 0.052 g); assay type: functional
Myzus persicae = assay: Insecticidal activity against Myzus persicae (green peach aphid) infested tomato assessed as mortality applied to soil after 5 days; assay type: functional
Bemisia tabaci = assay: Insecticidal activity against second-instar […] stage of Bemisia tabaci (sweet potato whitefly) infested cotton assessed as mortality applied through foliar spray after 6 days; assay type: functional
Meloidogyne incognita [4] = assay: Nematicidal activity against second juvenile stage of Meloidogyne incognita (root-knot nematode) infected pea plant assessed as plant fresh weight at 3 kg ai/ha applied to soil measured up to 14 days post planting under green house conditions (reference value: 4.3 +/- 0.56 g); assay type: functional
Meloidogyne incognita [5] = assay: Nematicidal activity against second juvenile stage of Meloidogyne incognita (root-knot nematode) infested soil containing cucumber seeds assessed as mortality applied post seed germination measured after 7 days under green house conditions; assay type: functional
Meloidogyne incognita [6] = assay: Nematicidal activity against second juvenile stage of Meloidogyne incognita (root-knot nematode) infected pea plant assessed as emergence at 4 kg ai/ha applied to soil measured up to 14 days post planting under green house conditions (reference value: 75 +/- 13%); assay type: functional
Meloidogyne incognita [7] = assay: Nematicidal activity against second juvenile stage of Meloidogyne incognita (root-knot nematode) infected lima bean plant assessed as shoot dry weight at 3 kg ai/ha applied to soil measured up to 14 days post planting under green house conditions (reference value: 1.84 +/- 0.18 g); assay type: functional
Phaseolus lunatus [8] = assay: Phytotoxicity in Phaseolus lunatus (lima bean) plant assessed as emergence at 1.12 kg ai/ha applied to soil under green house conditions (reference value: 70 +/- 16%); assay type: organism-based; conditions: in vivo, other
Pisum sativum [9] = assay: Phytotoxicity in Pisum sativum (pea) assessed as root dry weight at 3 kg ai/ha applied to soil measured up to 7 days post planting at 19 degC (reference value: 2 +/- 0.21 g); assay type: organism-based; conditions: lathyrus oleraceus, in vivo, other, 168 h
Pisum sativum [10] = assay: Phytotoxicity in Pisum sativum (pea) assessed as plant fresh weight at 2 kg ai/ha applied to soil measured up to 7 days post planting at 27 degC under green house conditions (reference value: 3.9 +/- 0.83 g); assay type: organism-based; conditions: lathyrus oleraceus, in vivo, other, 168 h
Meloidogyne incognita [11] = assay: Nematicidal activity against second juvenile stage of Meloidogyne incognita (root-knot nematode) infected lima bean plant assessed as emergence at 2 kg ai/ha applied to soil measured up to 7 days post planting under green house conditions (reference value: 83 +/- 5%); assay type: functional
Solanum lycopersicum [12] = assay: Phytotoxicity in Solanum lycopersicum (tomato) assessed as concentration required to cause foliar edge burn applied to soil after 5 weeks; assay type: organism-based; conditions: in vivo, 840 h
Phaseolus lunatus [13] = assay: Phytotoxicity in Phaseolus lunatus (lima bean) plant assessed as plant dry weight at 1.56 kg ai/ha applied to soil measured up to 7 days under green house conditions (reference value: 1.20 +/- 0.21 g); assay type: organism-based; conditions: in vivo, other, 168 h
Meloidogyne incognita [14] = assay: Nematicidal activity against second juvenile stage of Meloidogyne incognita (root-knot nematode) infected pea plant assessed as reduction in root gall index at 4 kg ai/ha applied to soil measured up to 7 days post planting under green house conditions (reference value: 9.7 +/- 0.30%); assay type: functional
Phaseolus lunatus [15] = assay: Phytotoxicity in Phaseolus lunatus (lima bean) plant assessed as emergence at 2.12 kg ai/ha applied to soil measured up to 7 days under green house conditions (reference value: 70 +/- 16%); assay type: organism-based; conditions: in vivo, other, 168 h
Meloidogyne incognita [16] = assay: Nematicidal activity against second juvenile stage of Meloidogyne incognita (root-knot nematode) infected lima bean plant assessed as reduction in root gall index at 1 kg ai/ha applied to soil measured during planting under green house conditions (reference value: 7 +/- 0.27%); assay type: functional
Pisum sativum [17] = assay: Phytotoxicity in Pisum sativum (pea) assessed as plant height at 4 kg ai/ha applied to soil measured up to 7 days post planting at 19 degC (reference value: 6.2 +/- 0.6 cm); assay type: organism-based; conditions: lathyrus oleraceus, in vivo, other, 168 h
Meloidogyne incognita [18] = assay: Nematicidal activity against second juvenile stage of Meloidogyne incognita (root-knot nematode) assessed as mortality after 72 hr; assay type: functional
Solanum lycopersicum [19] = assay: Phytotoxicity in Solanum lycopersicum (tomato) assessed as foliar edge burn at 200 ug/mL applied through foliar spray after 5 weeks; assay type: organism-based; conditions: in vivo, other, 840 h
Phaseolus lunatus [20] = assay: Phytotoxicity in Phaseolus lunatus (lima bean) plant assessed as plant dry weight at 2.56 kg ai/ha applied to soil measured up to 14 days under green house conditions (reference value: 1.20 +/- 0.21 g); assay type: organism-based; conditions: in vivo, other, 336 h
Meloidogyne incognita [21] = assay: Nematicidal activity against second juvenile stage of Meloidogyne incognita (root-knot nematode) infected lima bean plant assessed as shoot dry weight at 1 kg ai/ha applied to soil measured during planting under green house conditions (reference value: 1.84 +/- 0.18 g); assay type: functional
Pisum sativum [22] = assay: Phytotoxicity in Pisum sativum (pea) assessed as emergence at 3 kg ai/ha applied to soil measured up to 7 days post planting at 27 degC under green house conditions (reference value: 70 +/- 3.3%); assay type: organism-based; conditions: lathyrus oleraceus, in vivo, other, 168 h
Pisum sativum [23] = assay: Phytotoxicity in Pisum sativum (pea) assessed as emergence at 3 kg ai/ha applied to soil measured up to 14 days post planting at 27 degC under green house conditions (reference value: 70 +/- 3.3%); assay type: organism-based; conditions: lathyrus oleraceus, in vivo, other, 336 h
Meloidogyne incognita [24] = assay: Nematicidal activity against second juvenile stage of Meloidogyne incognita (root-knot nematode) infected lima bean plant assessed as root dry weight at 1 kg ai/ha applied to soil measured during planting under green house conditions (reference value: 0.5 +/- 0.052 g); assay type: functional
Pisum sativum [25] = assay: Phytotoxicity in Pisum sativum (pea) assessed as plant fresh weight at 4 kg ai/ha applied to soil measured up to 7 days post planting at 27 degC under green house conditions (reference value: 3.9 +/- 0.83 g); assay type: organism-based; conditions: lathyrus oleraceus, in vivo, other, 168 h
Pisum sativum [26] = assay: Phytotoxicity in Pisum sativum (pea) assessed as emergence at 2 kg ai/ha applied to soil measured up to 7 days post planting at 19 degC relative to untreated control; assay type: organism-based; conditions: lathyrus oleraceus, in vivo, other, 168 h
Phaseolus lunatus [27] = assay: Phytotoxicity in Phaseolus lunatus (lima bean) root assessed as root dry weight at 0.56 kg ai/ha applied to soil under green house conditions (reference value: 0.36 +/- 0.071 g); assay type: organism-based; conditions: in vivo, other
Meloidogyne incognita [28] = assay: Nematicidal activity against second juvenile stage of Meloidogyne incognita (root-knot nematode) infected pea plant assessed as emergence at 4 kg ai/ha applied to soil measured up to 7 days post planting under green house conditions (reference value: 75 +/- 13%); assay type: functional

Compound `CNC(=O)ON=C(C)SC` [METHOMYL] has an Activity (Meloidogyne incognita [1]) of 83%, an LC90 [2] of 36 µg/mL (≈ 222 µM) and an LC50 ([2]; Frankliniella occidentalis, soil, 168 h) of 22 µg/mL (≈ 136 µM). The Activity (Meloidogyne incognita [3]) was 0.38 g, the LC90 (Myzus persicae) was 11 µg/mL (≈ 67.8 µM) and the LC50 (Myzus persicae; Myzus persicae, soil, 120 h) was 1 µg/mL (≈ 6.16 µM). For the same compound, the LC90 (Bemisia tabaci) was 1589 µg/mL (≈ 9800 µM), the LC50 (Bemisia tabaci; Bemisia tabaci, foliar, 144 h) was 203 µg/mL (≈ 1250 µM) and the Activity (Meloidogyne incognita [4]) was 5.2 g. It also gave an LC90 (Meloidogyne incognita [5]) of 69.7 µg/mL (≈ 430 µM), an LC50 (Meloidogyne incognita [5]; Meloidogyne incognita, Juvenile stage, 168 h) of 10.2 µg/mL (≈ 62.9 µM) and an Activity (Meloidogyne incognita [6]) of 38%. The Activity (Meloidogyne incognita [7]) was 1.55 g, the Activity (Phaseolus lunatus [8]) was 80% and the Activity (Pisum sativum [9]) was 2.2 g. It also gave an Activity (Pisum sativum [10]) of 3 g, an Activity (Meloidogyne incognita [11]) of 100% and an Activity (Solanum lycopersicum [12]) of 100 µg/mL. The Activity (Phaseolus lunatus [13]) was 1.26 g, the Root_galling_index (Meloidogyne incognita [14]) was 0% and the Activity (Phaseolus lunatus [15]) was 80%. The Root_galling_index (Meloidogyne incognita [16]) was 0%, the Activity (Pisum sativum [17]) was 6.3 cm and the LC90 (Meloidogyne incognita [18]) was 9.8 µg/mL (≈ 60.4 µM). For the same compound, the LC50 (Meloidogyne incognita [18]; Meloidogyne incognita, Juvenile stage, 72 h) was 3.6 µg/mL (≈ 22.2 µM), the Activity (Solanum lycopersicum [19]) was “Non-toxic” and the Activity (Phaseolus lunatus [20]) was 1.25 g. The Activity (Meloidogyne incognita [21]) was 1.79 g, the Activity (Pisum sativum [22]) was 70% and the Activity (Pisum sativum [23]) was 80%. For the same compound, the Activity (Meloidogyne incognita [24]) was 0.44 g, the Activity (Pisum sativum [25]) was 3.1 g and the Activity (Pisum sativum [26]) was 93%. The Activity (Phaseolus lunatus [27]) was 0.35 g and the Activity (Meloidogyne incognita [28]) was 88%.
